In patent EP4623912A1, “A METHOD FOR DEFATTENING A STEATOTIC LIVER EX VIVO” (ETH Zurich, priority 2024, dated 2025):

Tested on: human liver graft
Method: A human liver graft was perfused for 8 days, after being discarded from all Swiss transplant centers. Use of discarded grafts was approved by local authorities (Kantonale Ethik Kommission Zürich KEK Nr. 2017-000412). […] The liver was procured with a total ischemia time of 40 min after circulatory death of the donor. It was flushed with IGL-1 solution and perfused for 2 h with Belzer MPS at 8°C. The infrahepatic vena cava was closed with a suture and the hepatic artery, portal vein, suprahepatic vena cava and common bile duct were cannulated with steel cannulas. The graft was subsequently perfused with whole blood and a custom built normothermic perfusion machine (Eshmuminov,D. et al, Nat Biotechnol 38, (2020)). Hepatic arterial pressure was controlled to be 80/50 mmHg, allowing for an average flow of 0.25 L/min. A vasodilator, epoprostenol, was automatically infused to keep arterial flow stable. Oxygenation was automatically controlled with a setpoint partial pressure of oxygen equal to 12 kPa. Portal venous flow was controlled to be at 1 L/min, resulting in a pressure of 2 mmHg on average. Further, oxygenation of portal blood was automatically regulated to achieve 65% saturation in the vena cava. Use of an electric pinch valve further allowed for pressure regulation in the vena cava, keeping a constant pressure of 0 mmHg. Glucose levels were automatically controlled by using a real-time glucose sensor (CCIT) and automated insulin infusions, keeping glucose levels at 7 mmol/L from the second day of perfusion onwards. A dialysis bypass was used to clear waste metabolites and control haematocrit levels by using a fixed dialysate influx rate of 200 mL/h and an automatically controlled outflux. […] After 8 days of perfusion, the liver weight decreased to 1507g (without gallbladder) and was sent for pathological examination.
Perfusate was mixed with 6 units of red blood cell concentrate (A+), 5 units of fresh frozen […], one unit of thrombocytes and 200 mL of 20% human albumin (CSL Behring). An initial bolus of 2.25 g Tazobactam and 500 mg Methylprednisolone was administered after priming. During the perfusion, 1000 U of heparin were infused per hour. Further, 2.25 g of Tazobactam, 3.36 g of ursodesoxycholic acid and 500 mg of methylprednisolone were continuously infused per day. UCB9608 was administered as a daily bolus by adding 300 µL of 50 mM solution directly to the blood reservoir, targeting a final concentration in the perfusate of 10 µM. On the first day, a larger bolus of 600 µL was given.
Adipose depots, liver pieces, differentiated iBAs, HepG2, HEK293T and HEK293-AAV cell types were homogenized in RIPA buffer (50 mM Tris-HCl pH 7.4, 150 mM NaCl, 2 mM EDTA, 1.0% Triton X100, 0.5% sodium deoxycholate) with protease inhibitors (Complete, Roche) and phosphatase inhibitors (Halt phosphatase inhibitor cocktail, ThermoFisher). The homogenates were centrifuged at 12,000×g for 10 min at 4°C to remove debris and collect whole cell extract (WCE). The concentration of WCE was determined by DC Protein Assay (Bio-Rad). After boiling the sample with Lämmeli buffer at 95°C for 5 min, equal amount of proteins was loaded and separated on 12% SDS-PAGE. […]

[1] = biopsies from both lobes, unchanged in the two control grafts

For COc1ccc(NC(=O)N2CCN(c3nc(N)nc4c3cnn4C)[C@@H](C)C2)c(C)c1 [UCB9608], the “cell viability (ATP analysis and histology)” value was “remained until the end of perfusion”, the “time liver function was well preserved” value was “at least 6 days” and the “liver weight after perfusion” value (after 8 days, without gallbladder, initial weight 2740g with gall bladder) was 1507 g. For the same molecule, the “macrovesicular steatosis after perfusion” value (after 8 days, 15% before perfusion, pathological examination) was “less than 5%”, the “ATGL levels in liver biopsies” value [1] was “substantially elevated” and the “TG deposition in liver biopsies” value [1] was “reduced”. The “non-esterified fatty acids (NEFAs) from dialysate” value (during perfusion, UCB9608 daily, target 10 µM) was “detected”.
